The values that follow come from patent US11339203B2, “Antitumor peptide and use thereof” (TOAGOSEI CO., LTD., priority 2018, dated 2022).

Read-outs that look alike come from different tables or passages of the source. Where no end group is shown, it is not given here.

For data set [1], the system named is human kidney cancer cell line (CAKI2). In kind it is cell-based. To be noted: human, 48 h. How it is done: The antitumor activity of each sample peptide synthesized in above-mentioned Test Example 1 was evaluated targeted in human-derived cultured tumor cells. More specifically, a human kidney cancer cell line (CAKI2) that is currently commercially available was used for the test tumor cells. CAKI2 cells were cultured and adjusted to cell count of about 5×10^3 cells per single well of 96-well plate. The amount of medium at this time was made to be 100 μL per well. Next, the 96-well plate was arranged in a CO2 incubator and incubated for about 1 day (21 hours to 24 hours) under conditions of 37° C. and 5% CO2. Subsequently, peptide-containing test media were respectively prepared for each concentration so that the concentration of each sample peptide targeted for evaluation was 12.5 μM and 25 μM followed by supplying to the wells in which the cells targeted for evaluation were cultured (namely, the wells following the above-mentioned incubation) so that the amount of media was 90 μL per well. The 96-well plate was then returned to CO2 incubator followed by incubating for 48 hours under conditions of 37° C. and 5% CO2. The number of wells (n) at each concentration in each peptide addition test group was set to 3. Thus, the values of the results indicated in the following table are the average values of the results respectively obtained for 3 test wells. Cell viability (%) was determined in the manner described below. Following completion of incubation for 48 hours as described above, the medium in each well was replaced with 100 μL of fresh medium not containing peptide followed by further adding a reagent for measuring cell proliferation in the form of “Cell Counting Kit-8” (Dojindo Laboratories) containing “water-soluble tetrazolium salt (WST-8)” as a coloring reagent at 10 μL per well. Subsequently, the 96-well plate was again returned to CO2 incubator and incubated for 1.5 hours to 2 hours under conditions of 37° C. and 5% CO2. Following completion of incubation, cell viability (%) was evaluated using a colorimetric method consisting of recovering the cell culture liquid containing the above-mentioned reagent together with measuring absorbance at wavelength of 450 nm based on reduction of tetrazolium salt (value corrected for absorbance at a wavelength of 650 nm: A450 to A650). More specifically, the cell viability (%) of each test cell line was calculated from the measured absorbance as a relative value based on cell viability of 100% for the measured value (measured absorbance) of the comparison test group that underwent incubation for 48 hours as described above in only medium not containing peptide. McCoy's 5A medium (Gibco) containing 2 mM L-glutamine, 3,000 mg/L of glucose, 100 units/mL of penicillin, 100 μg/mL of streptomycin and 10% fetal bovine serum (FBS).

The test system of another data set is tumor cells. Nature of the data set: Antitumor activity of the TM2-TAT peptide (data not shown). In kind it is cell-based. To be noted: detailed data not shown.

For “FLLISACWVISLILGGLPIMGWKKRTLRKNDRKKR-NH2 [Sample 4]”, the “Cell Viability (%)” value in data set [1] (12.5 μM) is listed as 70.6%; in data set [1] (25 μM), 85.6%. “SEQ ID NO: 33: synthetic peptide binding SEQ ID NO: 23 (TAT sequence of HIV) to the C-terminal side of SEQ ID NO: 2 (S1PR1 second TM region) (FIGNLALSDLLAGVAYTANLLLRKKRRQRRR)”: the antitumor activity result with tumor cells was “demonstrated antitumor activity”. As to `CC[C@H](C)[C@H](NC(=O)[C@H](CCCNC(=N)N)NC(=O)[C@H](CS)NC(=O)[C@H](Cc1ccc(O)cc1)NC(=O)[C@H](CC(C)C)NC(=O)[C@@H](NC(=O)[C@@H](NC(=O)[C@@H](NC(=O)[C@H](CO)NC(=O)[C@H](CC(C)C)NC(=O)[C@H](CC(C)C)NC(=O)[C@H](CC(C)C)NC(=O)[C@H](CC(C)C)NC(=O)[C@@H](NC(=O)[C@H](Cc1ccccc1)NC(=O)[C@@H](NC(=O)[C@@H](NC(=O)[C@@H](NC(=O)[C@H](CS)NC(=O)[C@H](Cc1ccccc1)NC(=O)[C@H](CC(C)C)NC(=O)[C@@H](NC(=O)[C@H](Cc1ccc(O)cc1)NC(=O)[C@H](Cc1c[nH]cn1)NC(=O)[C@H](CCCCN)NC(=O)[C@H](Cc1c[nH]cn1)NC(=O)[C@H](Cc1ccc(O)cc1)NC(=O)[C@@H](N)CC(C)C)[C@@H](C)CC)[C@@H](C)O)[C@@H](C)O)C(C)C)[C@@H](C)O)[C@@H](C)CC)C(C)C)[C@@H](C)CC)C(=O)N[C@@H](CCCCN)C(=O)N[C@@H](CCCCN)C(=O)N[C@@H](CCCNC(=N)N)C(=O)N[C@H](C(=O)N[C@@H](CC(C)C)C(=O)N[C@@H](CCCNC(=N)N)C(=O)N[C@@H](CCCCN)C(=O)N[C@@H](CC(N)=O)C(=O)N[C@@H](CC(=O)O)C(=O)N[C@@H](CCCNC(=N)N)C(=O)N[C@@H](CCCCN)C(=O)N[C@@H](CCCCN)C(=O)N[C@@H](CCCNC(=N)N)C(N)=O)[C@@H](C)O` [Sample 5], the results for the “Cell Viability (%)” value in data set [1] (12.5 μM) and in data set [1] (25 μM) were 73.3% and 77.6%, respectively. For “LFRAEYFLVLAVLNSGTNPIIKKRTLRKNDRKKR-NH2 [Sample 7]”, in that order: 98.9% and 66.3%. “VIIVLSVFIACWAPLFILLLLKKRTLRKNDRKKR-NH2 [Sample 6]”: the “Cell Viability (%)” value is 69.3% in data set [1] (12.5 μM) and 59.7% in data set [1] (25 μM).

“WFLREGSMFVALSASVFSLLAIKKRTLRKNDRKKR-NH2 [Sample 3]”: the “Cell Viability (%)” value in data set [1] (12.5 μM) is on record as 68%; in data set [1] (25 μM) it was 45.8%.
